Experimental data from DBAASP.
Converted amounts (≈) assume the structure as drawn. “And” between values parts separate entries of the source, which are not always exact repeats. Equal entries are not always repeated.

Key:
Experiment in all cases: ≥ marks a high value that may be exact or a test limit, other limits are often not marked, values filed in µg/mL are converted to µM
[1] = tested on: Escherichia coli ATCC 25922
Bacteroides fragilis = tested on: Bacteroides fragilis
[2] = tested on: Candida albicans ATCC 90028
[3] = tested on: Bacillus subtilis CGMCC 1.3376
[4] = tested on: Enterobacter cloacae HNTCC 53001
[5] = tested on: Staphylococcus aureus T7/5
[6] = tested on: Staphylococcus epidermidis CGMCC 1.4260
[7] = tested on: Pseudomonas aeruginosa ATCC 27853
[8] = tested on: Staphylococcus aureus CGMCC 1.8721
[9] = tested on: Staphylococcus aureus NCTC 8325
Clostridium septicum = tested on: Clostridium septicum
[10] = tested on: Salmonella enterica subsp. enterica serovar Typhimurium LT2
[11] = tested on: Prevotella melaninogenica
[12] = tested on: Staphylococcus aureus T27/9
[13] = tested on: Fusobacterium varium ATCC 27725
[14] = tested on: Batrachochytrium dendrobatidis
[15] = tested on: Staphylococcus epidermidis RP62A
Acinetobacter baumannii = tested on: Acinetobacter baumannii
[16] = tested on: Peptoniphilus asaccharolyticus ATCC 29743
[17] = tested on: Klebsiella pneumoniae CGMCC 1.1736
[18] = tested on: Staphylococcus aureus T58/7
[19] = tested on: Bacteroides fragilis ATCC 25285
[20] = tested on: Escherichia coli CGMCC 1.8732
Fusobacterium nucleatum = tested on: Fusobacterium nucleatum
[21] = tested on: Clostridium tertium ATCC 19465
[22] = tested on: Pseudomonas aeruginosa CGMCC 1.2421
[23] = tested on: Clostridium perfringens ATCC 10543
[24] = tested on: Cutibacterium acnes ATCC 11828
[25] = tested on: Enterococcus faecalis ATCC 29212
[26] = tested on: Klebsiella pneumoniae KK3 9904
Cutibacterium acnes = tested on: Cutibacterium acnes
[27] = tested on: Proteus mirabilis ATCC 25933
[28] = tested on: Peptostreptococcus anaerobius
[29] = tested on: Pseudomonas aeruginosa PAK
[30] = tested on: Streptococcus sobrinus ATCC 33478
Escherichia coli W3110 = tested on: Escherichia coli W3110
Enterococcus faecalis = tested on: Enterococcus faecalis
[31] = tested on: Streptococcus mutans UA159
[32] = tested on: Streptococcus sanguinis NY101
Staphylococcus aureus = tested on: Staphylococcus aureus
[33] = tested on: Staphylococcus aureus 930918-3
[34] = tested on: Pseudomonas aeruginosa MR3007
[35] = tested on: Staphylococcus aureus ATCC 33591
Yersinia pestis KIM pYV = tested on: Yersinia pestis KIM pYV
[36] = tested on: Acinetobacter baumannii ATCC 19606
[37] = tested on: Escherichia coli ATCC 23716
[38] = tested on: Pseudomonas aeruginosa CUN 4158-02
[39] = tested on: Staphylococcus aureus ATCC 43300
[40] = tested on: Bordetella bronchiseptica CUN 11844-99
[41] = tested on: Staphylococcus aureus SA113
[42] = tested on: Brucella abortus 9.49 (per-)

What does the source list for `CC[C@H](C)[C@H](NC(=O)[C@H](C)N)C(=O)NCC(=O)N[C@@H](CO)C(=O)N[C@H](C(=O)N[C@@H](CC(C)C)C(=O)NCC(=O)N[C@@H](C)C(=O)N[C@@H](CC(C)C)C(=O)N[C@@H](C)C(=O)N[C@@H](CCCCN)C(=O)NCC(=O)N[C@@H](CC(C)C)C(=O)N1CCC[C@H]1C(=O)N[C@H](C(=O)N[C@@H](CC(C)C)C(=O)N[C@H](C(=O)N[C@@H](CO)C(=O)N[C@@H](Cc1c[nH]c2ccccc12)C(=O)N[C@H](C(=O)N[C@@H](CCCCN)C(=O)N[C@@H](CC(N)=O)C(=O)N[C@@H](CCCN=C(N)N)C(N)=O)[C@@H](C)CC)[C@@H](C)CC)[C@@H](C)O)[C@@H](C)CC` [AIGSILGALAKGLPTLISWIKNR]?
MIC [1]: 20 µM and 12.5 µM; MIC (Bacteroides fragilis): ≥ 50 µM; MIC [2]: 19 µM and 12.5 µM; MIC [3]: 3.13 µM (≈ 7.49 µg/mL); MIC [4]: 12.5 µM (≈ 29.9 µg/mL); MIC [5]: 2.5 µM (≈ 5.98 µg/mL); MIC [6]: 3.13 µM (≈ 7.49 µg/mL); MIC [7]: 25 µM (≈ 59.8 µg/mL); MIC [8]: 6.25 µM (≈ 14.9 µg/mL); MIC [9]: 3.5 µM and 6 µM; MIC (Clostridium septicum): 12.5 µM (≈ 29.9 µg/mL); MIC [10]: ≥ 50 µM; MIC [11]: 3 µM (≈ 7.18 µg/mL); MIC [12]: 5 µM (≈ 12 µg/mL); MIC [13]: ≥ 50 µM; MIC [14]: 25 µM (≈ 59.8 µg/mL); MIC [15]: 3 µM (≈ 7.18 µg/mL); MIC (Acinetobacter baumannii): 12.5 µM (≈ 29.9 µg/mL); MIC [16]: ≥ 50 µM; MIC [17]: 12.5 µM (≈ 29.9 µg/mL); MIC [18]: 20 µM (≈ 47.8 µg/mL); MIC [19]: ≥ 50 µM; MIC [20]: 25 µM (≈ 59.8 µg/mL); MIC (Fusobacterium nucleatum): ≥ 50 µM; MIC [21]: 12.5 µM (≈ 29.9 µg/mL); MIC [22]: 12.5 µM (≈ 29.9 µg/mL); MIC [23]: ≥ 50 µM; MIC [24]: 12.5 µM (≈ 29.9 µg/mL); MIC [25]: 6 µM (≈ 14.4 µg/mL); MIC [26]: ≥ 50 µM; MIC (Cutibacterium acnes): 25 µM (≈ 59.8 µg/mL); MIC [27]: ≥ 100 µM; MIC [28]: 25 µM (≈ 59.8 µg/mL)

Which MIC [29] does the source give for `CC[C@H](C)[C@H](NC(=O)[C@H](Cc1ccccc1)NC(=O)[C@H](Cc1cnc[nH]1)NC(=O)[C@H](CCCCN)NC(=O)[C@@H](NC(=O)[C@H](Cc1ccccc1)NC(=O)[C@@H]1CCCN1C(=O)[C@H](Cc1ccc(O)cc1)NC(=O)[C@@H]1CCCN1C(=O)[C@H](Cc1ccccc1)NC(=O)[C@H](Cc1cnc[nH]1)NC(=O)[C@H](CC(C)C)NC(=O)[C@H](Cc1cnc[nH]1)NC(=O)[C@H](Cc1ccccc1)NC(=O)[C@H](Cc1cnc[nH]1)NC(=O)[C@@H](N)Cc1ccccc1)[C@@H](C)CC)C(=O)N[C@@H](Cc1cnc[nH]1)C(=O)N[C@@H](CCCN=C(N)N)C(=O)N[C@@H](Cc1ccccc1)C(N)=O` [FHFHLHFPYPFIKHFIHRF] here?
The MIC was no less than 48.7 µM.

What about the MIC [30] of the same compound?
The MIC was 24.3 µM (≈ 62.5 µg/mL).

And the MIC (Escherichia coli W3110)?
The MIC was no less than 48.7 µM.

And the MIC (Enterococcus faecalis)?
The MIC was no less than 97.4 µM.

What about the MIC [31] of the same compound?
The MIC was 12.5 µM (≈ 32 µg/mL).

What about the MIC [32] of the same compound?
Its MIC is 24.3 µM (≈ 62.5 µg/mL).

And the MIC (Staphylococcus aureus)?
The MIC was greater than 195 µM.

Which results are given for `CC[C@H](C)[C@H](NC(=O)[C@H](CCCCN)NC(=O)[C@H](CCCCN)NC(=O)[C@H](CC(C)C)NC(=O)[C@H](CCCCN)NC(=O)[C@H](CCC(=O)O)NC(=O)[C@H](CCCCN)NC(=O)[C@@H](NC(=O)[C@@H](N)CCCCN)[C@@H](C)CC)C(=O)NCC(=O)N[C@@H](CCC(N)=O)C(=O)N[C@@H](CCCCN)C(=O)N[C@H](C(=O)N[C@@H](CCC(N)=O)C(=O)NCC(=O)O)[C@@H](C)CC` [KIKEKLKKIGQKIQG]?
MIC [33]: ≥ 143 µM; MIC [34]: ≥ 143 µM; MIC [35]: ≥ 143 µM

Which results are given for `CC[C@H](C)[C@H](NC(=O)[C@H](CCCCN)NC(=O)[C@H](CCCCN)NC(=O)[C@H](CO)NC(=O)[C@@H](NC(=O)CNC(=O)[C@H](CCCN=C(N)N)NC(=O)[C@H](CC(C)C)NC(=O)[C@@H](NC(=O)[C@@H](N)CCCCN)[C@@H](C)CC)C(C)C)C(=O)N[C@@H](CCSC)C(=O)N[C@@H](CCCN=C(N)N)C(=O)N[C@@H](CCCN=C(N)N)C(=O)N[C@H](C(=O)N[C@@H](CO)C(=O)N[C@@H](CCCCN)C(=O)N[C@@H](CC(=O)O)C(=O)N[C@H](C(=O)N[C@@H](CC(C)C)C(=O)N[C@H](C(=O)NCC(=O)N[C@@H](CCCCN)C(=O)N[C@@H](CCCCN)C(N)=O)[C@@H](C)O)[C@@H](C)CC)[C@@H](C)CC` [KILRGVSKKIMRRISKDILTGKK]?
MIC (Yersinia pestis KIM pYV): ≥ 48 µM; MIC [1]: 5.99 µM (≈ 16 µg/mL); MIC [36]: 3 µM (≈ 8 µg/mL); MIC [37]: 5.99 µM and 4.68 µM; MIC [38]: 5.99 µM (≈ 16 µg/mL); MIC [39]: > 95.9 µM; MIC (Staphylococcus aureus): 24 µM and 48 µM; MIC [40]: 0.375 µM (≈ 1 µg/mL); MIC [41]: ≥ 95.9 µM; MIC [42]: 1.5 µM (≈ 4 µg/mL)
